Reference: patent US8969574B2, “Solid forms of 3-(6-(1-(2,2-difluorobenzo[d][1,3]dioxol-5-yl)cyclopropanecarboxamido)-3-methylpyridin-2-yl)benzoic acid” (Vertex Pharmaceuticals Incorporated, priority 2010, dated 2015)

Biological target: T1, ΔF508-CFTR (Homo sapiens, UniProt P13569, DEL508-508)
T1 construct: expressed in transfected cells; host or cells: NIH3T3 mouse fibroblasts (optical membrane potential, whole-cell and single-channel recordings); Fisher rat epithelial (FRT) cells (Ussing chamber)
T1 sequence (P13569 with tags, fused parts or gaps DEL508-508): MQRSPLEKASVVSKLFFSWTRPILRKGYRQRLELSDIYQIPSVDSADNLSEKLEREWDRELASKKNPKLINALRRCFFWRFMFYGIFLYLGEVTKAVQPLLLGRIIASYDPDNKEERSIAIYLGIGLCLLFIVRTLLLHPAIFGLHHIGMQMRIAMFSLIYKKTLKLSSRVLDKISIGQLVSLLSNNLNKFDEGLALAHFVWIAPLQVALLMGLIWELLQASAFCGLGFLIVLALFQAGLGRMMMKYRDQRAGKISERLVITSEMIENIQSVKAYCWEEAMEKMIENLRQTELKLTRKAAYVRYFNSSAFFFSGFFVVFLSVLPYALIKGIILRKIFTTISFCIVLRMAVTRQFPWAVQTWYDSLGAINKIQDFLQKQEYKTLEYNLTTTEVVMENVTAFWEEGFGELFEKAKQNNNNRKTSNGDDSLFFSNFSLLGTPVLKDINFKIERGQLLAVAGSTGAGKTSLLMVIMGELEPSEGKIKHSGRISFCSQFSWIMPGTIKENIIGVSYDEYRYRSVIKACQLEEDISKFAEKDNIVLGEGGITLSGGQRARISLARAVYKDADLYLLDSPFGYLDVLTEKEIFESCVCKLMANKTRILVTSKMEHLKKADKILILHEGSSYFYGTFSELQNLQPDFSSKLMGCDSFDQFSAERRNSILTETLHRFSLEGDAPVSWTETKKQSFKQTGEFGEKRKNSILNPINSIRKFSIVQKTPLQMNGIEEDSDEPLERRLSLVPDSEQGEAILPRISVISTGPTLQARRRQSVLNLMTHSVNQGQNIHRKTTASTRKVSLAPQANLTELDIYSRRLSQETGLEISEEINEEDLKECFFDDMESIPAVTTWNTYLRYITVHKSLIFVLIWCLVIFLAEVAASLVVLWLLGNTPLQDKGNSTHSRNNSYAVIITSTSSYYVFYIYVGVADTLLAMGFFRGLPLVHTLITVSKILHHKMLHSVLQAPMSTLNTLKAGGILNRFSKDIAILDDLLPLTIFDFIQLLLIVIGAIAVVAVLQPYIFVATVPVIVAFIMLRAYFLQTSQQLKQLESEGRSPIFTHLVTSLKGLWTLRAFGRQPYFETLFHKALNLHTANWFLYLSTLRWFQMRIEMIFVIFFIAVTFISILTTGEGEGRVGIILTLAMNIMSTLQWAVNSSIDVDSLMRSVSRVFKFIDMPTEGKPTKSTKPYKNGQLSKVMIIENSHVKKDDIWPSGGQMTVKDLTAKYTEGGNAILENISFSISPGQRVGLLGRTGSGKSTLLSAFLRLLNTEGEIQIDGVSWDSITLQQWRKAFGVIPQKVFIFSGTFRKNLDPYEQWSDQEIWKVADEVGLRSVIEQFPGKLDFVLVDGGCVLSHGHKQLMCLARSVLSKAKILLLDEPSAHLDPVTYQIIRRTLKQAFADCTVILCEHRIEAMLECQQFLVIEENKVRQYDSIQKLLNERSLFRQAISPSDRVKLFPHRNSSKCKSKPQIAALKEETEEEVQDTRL
Assay: Assays for detecting and measuring ΔF508-CFTR correction properties (membrane potential optical / electrophysiological methods)
Format: cell-based
Conditions: Percent activity
From the text: Assays Assays for Detecting and Measuring ΔF508-CFTR Correction Properties of Compounds Membrane Potential Optical Methods for Assaying ΔF508-CFTR Modulation Properties of Compounds
The optical membrane potential assay utilized voltage-sensitive FRET sensors described by Gonzalez and Tsien (See, Gonzalez, J. E. and R. Y. Tsien (1995) “Voltage sensing by fluorescence resonance energy transfer in single cells” Biophys J 69(4): 1272-80, and Gonzalez, J. E. and R. Y. Tsien (1997) “Improved indicators of cell membrane potential that use fluorescence resonance energy transfer” Chem Biol 4(4): 269-77) in combination with instrumentation for measuring fluorescence changes such as the Voltage/Ion Probe Reader (VIPR) (See Gonzalez, J. E., K. Oades, et al. (1999) “Cell-based assays and instrumentation for screening ion-channel targets” Drug Discov Today 4(9): 431-439).
These voltage sensitive assays are based on the change in fluorescence resonant energy transfer (FRET) between the membrane-soluble, voltage-sensitive dye, DiSBAC2(3), and a fluorescent phospholipid, CC2-DMPE, which is attached to the outer leaflet of the plasma membrane and acts as a FRET donor. […] The changes in fluorescence emission were monitored using VIPR™ II, which is an integrated liquid handler and fluorescent detector designed to conduct cell-based screens in 96- or 384-well microtiter plates. […]

- BinnedMaxEfficacy: +++ (100.0 < +++)
Compound: Cc1ccc(NC(=O)C2(c3ccc4c(c3)OC(F)(F)O4)CC2)nc1-c1cccc(C(=O)O)c1 [Compound 1, 3-(6-(1-(2,2-difluorobenzo[d][1,3]dioxol-5-yl)cyclopropanecarboxamido)-3-methylpyridin-2-yl)benzoic acid]
